“Also recorded” adds a separate entry of the source.
Columns and labels:
[1] = test system: H460 xenograft tumor hypoxia ([18F]-HX4 uptake); test: [18F]-HX4 PET/CT imaging of H460 xenograft tumors; assay type: in vivo, nu/nu mice
From the text: (§1) Proliferating cells (as measured by Ki-67 immunostaining) were decreased as well; DNA damage (as measured by γH2AX immunostaining) and necrosis (as measured by hematoxylin and eosin, H&E, staining) were increased. There was regional co-localization of pimonidazole and CA-IX, but not co-localization of pimonidazole and two other putative endogenous hypoxia markers: Glut-1 or HIF-1α.
(§2) Three biomarker platforms were employed in this study: positron emission tomography (PET) imaging employing the tracer [18F]-HX4; immunohistochemistry of isolated tumor tissue employing antibodies directed against the exogenous hypoxia biomarker pimonidazole and the endogenous hypoxia biomarker carbonic anhydrase IX (CA-IX); and ELISA-based quantification of circulating plasma CA-IX.
(§3) [18F]-HX4 uptake was assessed by PET/CT imaging, and the tumor to muscle ratio (T/M) was determined. […] Blood was collected from the pre- and post-treated animals via retro-orbital venipuncture. Plasma CA-IX changed from baseline 165±13 to 104±9.3 pg/ml 72 hours after TH-302 dosing, a 37% reduction (p<0.05; n=10 per group). […] For tissue biomarker analysis, tumors were harvested 72 hours after TH-302 treatment, and tumor hypoxia was assessed by semi-quantitative morphometric analysis of the PIMO immunostaining at that time. […]

[2] = test system: carbonic anhydrase IX (CA-IX); test: ELISA quantification of circulating plasma CA-IX in H460 xenograft animals; assay type: in vivo, nu/nu mice; conditions: for circulating plasma CA-IX level change: 72 hours, TH-302 150 mg/kg i.p., doxorubicin 4 mg/kg iv
Protocol: as §2
[18F]-HX4 uptake was assessed by PET/CT imaging, and the tumor to muscle ratio (T/M) was determined. […] Blood was collected from the pre- and post-treated animals via retro-orbital venipuncture. […] For tissue biomarker analysis, tumors were harvested 72 hours after TH-302 treatment, and tumor hypoxia was assessed by semi-quantitative morphometric analysis of the PIMO immunostaining at that time.

[3] = test system: H460 non-small cell lung cancer xenograft; test: H460 ectopic xenograft tumor growth and body weight, 150 mg/kg i.p.; assay type: in vivo, nu/nu mice
From the text: as §1
The human H460 non-small cell lung cancer human tumor ectopic xenograft model was employed for this study. The H460 non-small cell lung cancer xenograft model was established by s.c. implantation of 1×10^6 cells in the flank of nu/nu mice. When the tumor size was 100 mm^3, a single dose of TH-302 (150 mg/kg, i.p.) or vehicle was administered.

[4] = test system: H460 xenograft tumor hypoxia (pimonidazole); test: Pimonidazole immunostaining of H460 tumors (hypoxic fraction); assay type: in vivo, nu/nu mice
From the text: as §1, §2, §3

[5] = test system: 786-O human renal cell carcinoma (RCC) cell line; test: 786-O RCC xenograft tumor growth, repeated dosing; assay type: in vivo; conditions: 786-O model; 50 mg/kg QDx5 for 2 wk, i.p.; P vs vehicle >0.05
From the text: (§4) H460 is a high hypoxic fraction tumor model, while the 786-O RCC model is well-vascularized with very low hypoxia. […] When compiling the data from both H460 and 786-O tumors, there was significant correlation between [18F]-HX4 uptake and pimonidazole-positive hypoxic fraction (HF %, R2=0.55, p=0.006).
(§5) The utility of [18F]-HX4 to serve as a predictive biomarker for TH-302 anti-cancer efficacy was shown by the significant correlation observed between the TH-302 anti-cancer efficacy in a model and its hypoxic fraction as measured by [18F]-HX4. […] TGD500 was determined as the increased time (days) for the treated tumor's size on average to reach 500 mm^3 as compared with the vehicle group. TGI was defined as (1−ΔT/ΔC)×100, where ΔT/ΔC is the ratio of the change in mean tumor volume of the treated group (ΔT) and of the control group (ΔC).

H460 xenograft tumors = test: Tissue biomarkers in H460 tumors (Ki67, γH2AX, H&E); assay type: in vivo, nu/nu mice; conditions: 72 hours after 150 mg/kg i.p.
Protocol: as §1
[18F]-HX4 uptake was assessed by PET/CT imaging, and the tumor to muscle ratio (T/M) was determined. […] Blood was collected from the pre- and post-treated animals via retro-orbital venipuncture. Plasma CA-IX changed from baseline 165±13 to 104±9.3 pg/ml 72 hours after TH-302 dosing, a 37% reduction (p<0.05; n=10 per group). […] For tissue biomarker analysis, tumors were harvested 72 hours after TH-302 treatment, and tumor hypoxia was assessed by semi-quantitative morphometric analysis of the PIMO immunostaining at that time. The hypoxic fraction (HF) was 13±1.7% in the vehicle group (n=5) and 5.8±0.5% in the TH-302 treatment group (n=6, p<0.05).

[6] = test system: H460 human non-small cell lung cancer (NSCLC) cell line; test: H460 NSCLC xenograft tumor growth, repeated dosing; assay type: in vivo; conditions: H460 model; 50 mg/kg QDx5 for 2 wk, i.p.; P vs vehicle <0.001
From the text: as §4, §5

[7] = 72 hrs after one dose at 150 mg/kg i.p.

Which results are given for Cn1c(COP(=O)(NCCBr)NCCBr)cnc1[N+](=O)[O-] [TH-302, (2-bromoethyl)({[(2-bromoethyl)amino][(2-nitro-3-methylimidazol-4-yl)methoxy]phosphoryl})amine]?
[18F]-HX4 tumor to muscle ratio (T/M) ([1]; 72 hours after 150 mg/kg i.p., pre-treatment 3.3±0.3, p<0.005): 2.1±0.2; [18F]-HX4 uptake change (PET-CT) [1, 7]: significantly reduced; Plasma CA-IX ([2]; 72 hours after dosing 150 mg/kg i.p., baseline 165±13, n=10 per group): 104 ± 9.3 pg/mL; Plasma CA-IX reduction from baseline ([2]; 72 hours after dosing 150 mg/kg i.p., p<0.05): 37%; circulating plasma CA-IX level change [2]: significantly reduced; tumor growth in relation to initial [18F]-HX4 uptake ([3]; 150 mg/kg i.p., Q4-5Dx3): tumors with higher initial [18F]-HX4 uptake grew slower; tumor volume change [3, 7]: did not change significantly; TGD1000 (tumor growth delay to tumor size of 1000 mm^3) ([3]; single dose 150 mg/kg i.p.): 10 days; maximum body weight loss ([3]; single dose 150 mg/kg i.p.): 2%; TGI (tumor growth inhibition) ([3]; single dose 150 mg/kg i.p. at tumor size 100 mm^3): 58%; hypoxic fraction (HF %) change, pimonidazole immunostaining ([4]; 72 hours after treatment): significantly reduced; hypoxic fraction (HF), PIMO immunostaining ([4]; tumors harvested 72 hours after 150 mg/kg i.p., vehicle 13±1.7%, n=6, p<0.05): 5.8±0.5%; TGD500 (increased time for treated tumor to reach 500 mm^3 vs vehicle) [5]: 10 days; TGI [5]: 10%; DNA damage (γH2AX immunostaining) (H460 xenograft tumors): significantly increased; Proliferating cells (Ki67 immunostaining) (H460 xenograft tumors): decreased; also recorded: significantly reduced; necrosis (hematoxylin and eosin staining) (H460 xenograft tumors): significantly increased; TGD500 (increased time for treated tumor to reach 500 mm^3 vs vehicle) [6]: 18 days; TGI [6]: 89%

How did the “circulating plasma CA-IX level change” value [2] turn out when COc1cccc2c1C(=O)c1c(O)c3c(c(O)c1C2=O)C[C@@](O)(C(=O)CO)C[C@@H]3O[C@H]1C[C@H](N)[C@H](O)[C@H](C)O1 [doxorubicin, reference compound] was run?
Its value is “did not change circulating CA-IX levels significantly; also recorded: No change”.

Reference: patent US20160296538A1, “[…] RESPONSE BIOMARKER FOR TH-302 ANTI-CANCER THERAPY” (THRESHOLD PHARMACEUTICALS, INC., priority 2013, published 2016)
